Experimental data published in US20170218375A1, “MORPHOLINOS, MORPHOLINO UPREGULATING, AND ASSOCIATED METHODS” (University of Utah Research Foundation, priority 2011, published 2017).
{Dendrimer} = dendrimer conjugate (vivo-morpholino)

Legend:
[1] = test system: suture-induced corneal neovascularization and lymphangiogenesis; assay: Mouse corneal suture model (CD31 and LYVE-1 stained cornea flatmount); type: in vivo; conditions: for suppression of suture-induced neovascularization: CD31; for suppression of lymphangiogenesis: LYVE-1
Protocol: In another aspect, a corneal suture model can be used to evaluate angiogenesis. For the one week subarm, each morpholino or DPBS was injected subconjunctivally one day prior to and four days after suturing; the corneas were harvested at seven days post suturing. For the two week subarm, each morpholino or DPBS was injected subconjunctivally one day prior and four, seven and ten days after suturing; the corneas were harvested at fourteen days. CD31 and LYVE-1 were used as markers of neovascularization and lymphangiogenesis, respectively. FIGS. 10 and 11 representative images of CD31 stained corneas at one week and LYVE-1 stained corneas at two weeks, respectively.
Under anesthesia, 15 μl of moVEGFR2_MOe13 (40 ng/μl), STD_MO (40 ng/μl) or DPBS was injected subconjunctivally into two different places one day prior to the placement of 2 symmetrical 11-0 nylon sutures, followed by re-injection at four days after suture placement. Eyes were harvested 7 days after suture placement. In a second group, 15 μl of moVEGFR2_MOe13 (40 ng/μl), STD_MO (40 ng/μl) or DPBS was injected subconjunctivally into two different places one day prior to the placement of 2 symmetrical 11-0 nylon sutures. Subconjunctival injections were repeated at four, seven and ten days after suture placement. Eyes were harvested 14 days after suture placement. The corneas were fixed in acetone at room temperature for 20 minutes. After 4 washes in PBST (0.1% Tween20/PBS), the corneas were incubated in 3% BSA/PBS at 4° C. for 3 days. To detect CD31 and LYVE1, corneas were incubated in 3% BSA/PBS with FITC-conjugated rat anti-CD31 antibody (553372, 1:500, BD Biosciences, San Jose, Calif.) or rabbit anti-LYVE-1 (ab14917, 1:200, Abcam, Cambridge, Mass.) overnight at 4° C. After 3 washes in PBST, the corneas were incubated in 3% BSA/PBS with Alexa Fluor® 546 conjugated goat anti-rabbit IgG (A11071, 1:2000, Invitrogen Corporation, Carlsbad, Calif.) for one hour at room temperature. After 4 washes in PBST, corneas were mounted on slide glass with Fluoro-gel (Electron Microscopy Sciences, Hatfield, Pa.). Fluorescence was observed by fluorescence microscope (Carl Zeiss MicroImaging, Inc., Thornwood, N.Y.). The data for each suture was calculated by ImageJ separately. Areas where sutures had fallen out were not included in the final calculations.

[2] = test system: laser-induced choroidal neovascularization (CNV); assay: Laser-induced choroidal neovascularization (CNV) in mouse; type: in vivo
Protocol: It was also examined whether moVEGFR2_MOe13 inhibits laser-induced choroidal neovascularization (CNV). Each morpholino or DPBS was injected intravitreously on day 1 and day 4 after laser photocoagulation, and laser CNV volumes were examined on day 7. […] Vessel endothelial cells were stained with Alexa fluor488 conjugated isolectin GS-IB4. […] After photocoagulation, on day 1 and day 4, 2 ul of 100 ng/μl STD_MO, 500 ng/μl Goat IgG (AB-108-C, R&D Systems, Minneapolis, Minn.), 100 ng/μl moVEGFR2_MOe13, 500 ng/μl Goat Anti-mouse VEGF-A IgG (AF-493-NA, R&D Systems, Minneapolis, Minn.) or 2 ng/μl SU1498 (572888, EMD chemicals, Gibbstown, N.J.) was injected intravitreously. On day 7, CNV volumes were measured by confocal microscope. n=14-20 for each group. Risk factors (p-value) were calculated by two-tail student's t-test (*: p<0.05, **p<0.01). Error bar is ±s.e.m.
Each morpholino oligomer was purchased from Gene Tools (Philomath, Oreg.). The sequences of each morpholino oligomer and primers for PCR are listed in supplemental Table. HUVECs (Lonza, Walkersville, Md.) were cultured in EBM with EGM SingleQuot Kit supplements and growth factors according to the manufacturer's instructions (Lonza, Walkersville, Md.). MS-1 cells, a mouse endothelial cell line (ATCC, Manassas, Va.) were cultured in 5% FBS/DMEM. Morpholino oligomers were delivered to the nucleus by nucleofection (Amaxa, Gaithersburg, Md.) with a Basic Nucleofector Kit for Primary Mammalian Endothelial Cells (Amaxa, Gaithersburg, Md.) using program A-034 for HUVEC and MS-1 cells. For each nucleofection, 1×10^6 cells were used and plated on a 6-well plate. After 2 days of culture, cells were trypsinized and total RNA was extracted using a RNeasy mini kit (Qiagen, Valencia, Calif.) with DNaseI treatment. Detection of mbVEGFR2 was achieved by flow cytometry. […] The cells were washed three times and fluorescence was detected by a FACScan Analyzer (BD Biosciences, San Jose, Calif.). […]

“5′-cacccagggatgcctccatacCTAG-3′ (antisense CACCCAGGGATGCCTCCATACCTAG; all phosphorodiamidate morpholino (PMO), 3' {Dendrimer}) [moVEGFR2_MOe13, morpholino that targets the exon13-intron13 junction of the mouse VEGFR2 gene; in vivo conjugated with a dendrimer (vivo-morpholino)]” was tested, and the “suppression of suture-induced neovascularization” value ([1]; 1 week, 15 μl of 40 ng/μl subconjunctivally one day prior to and four days after suturing, compared to DPBS, p<0.001) was 52.2%, the suppression of lymphangiogenesis ([1]; 2 weeks after suture placement, compared to DPBS, p<0.05) was 27.8% and the “suppression of suture-induced neovascularization” value ([1]; 2 weeks, 15 μl of 40 ng/μl subconjunctivally one day prior and four, seven and ten days after suturing, compared to DPBS, p<0.05) was 29.6%. The suppression of lymphangiogenesis ([1]; one week after suture placement) was “did not suppress”, the “suppression of CNV compared with anti-VEGF-A IgG and SU1498 (FIG. 9)” value ([2]; 2 μl intravitreously day 1 and day 4: 100 ng/μl moVEGFR2_MOe13, 500 ng/μl anti-mouse VEGF-A IgG, 2 ng/μl SU1498, CNV volume day 7) was “comparable” and the “laser CNV volume” value ([2]; intravitreous injection on day 1 and day 4 after laser photocoagulation, volume on day 7, compared with STD_MO (p<0.05) and DPBS (p<0.01)) was “significantly suppressed”.
